Patent publication US10294202B2, “Pyrrolidinones as herbicides” (FMC Corporation, priority 2013, dated 2019)

Key:
[1] = system: bluegrass; assay: Test D pre-/postemergence herbicide test; format: in vivo, Poa annua; conditions: for Plant response rating: Bluegrass, scale 0 to 100; for Plant response rating, Bluegrass: scale 0 to 100 (0 no effect, 100 complete control)
How it was run: (§1)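 Test chemicals, formulated in a non-phytotoxic solvent mixture with surfactant, are sprayed preemergence onto seeds in silt loam and postemergence onto plants of 2–18 cm. Plants are held in a controlled growth environment for 7 to 21 days, then rated visually versus controls (0–100).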

[2] = system: blackgrass; assay: Test D pre-/postemergence herbicide test; format: in vivo, Alopecurus myosuroides; conditions: for Plant response rating: Blackgrass, scale 0 to 100; for Plant response rating, Blackgrass: scale 0 to 100 (0 no effect, 100 complete control)
How it was run: as §1

[3] = system: pigweed; assay: Test D pre-/postemergence herbicide test; format: in vivo, Amaranthus retroflexus; conditions: for Plant response rating: Postemergence, Pigweed, scale 0 to 100; for Plant response rating, Pigweed: Preemergence, scale 0 to 100 (0 no effect, 100 complete control)
How it was run: as §1

[4] = system: barley, spring; assay: Test D pre-/postemergence herbicide test; format: in vivo, Hordeum vulgare; conditions: for Plant response rating: Barley, Spring, scale 0 to 100; for Plant response rating, Barley, Spring: scale 0 to 100 (0 no effect, 100 complete control)
How it was run: as §1

[5] = system: barley, winter; assay: Test D pre-/postemergence herbicide test; format: in vivo, Hordeum vulgare; conditions: for Plant response rating: Barley, Winter, scale 0 to 100; for Plant response rating, Barley, Winter: scale 0 to 100 (0 no effect, 100 complete control)
How it was run: as §1

[6] = system: wheat, spring; assay: Test D pre-/postemergence herbicide test; format: in vivo, Triticum aestivum; conditions: for Plant response rating: Postemergence, Wheat, Spring, scale 0 to 100; for Plant response rating, Wheat, Spring: Preemergence, scale 0 to 100 (0 no effect, 100 complete control)
How it was run: as §1

[7] = system: wheat, winter; assay: Test D pre-/postemergence herbicide test; format: in vivo, Triticum aestivum; conditions: for Plant response rating: Postemergence, Wheat, Winter, scale 0 to 100; for Plant response rating, Wheat, Winter: Preemergence, scale 0 to 100 (0 no effect, 100 complete control)
How it was run: as §1

[8] = system: foxtail, green; assay: Test E preemergence herbicide test; format: in vivo, Setaria viridis; design: key: 0 = no effect, 100 = complete control
Text: Seeds of plant species selected from corn (Zea mays), soybean (Glycine max), velvetleaf (Abutilon theophrasti), lambsquarters (Chenopodium album), wild poinsettia (Euphorbia heterophylla), pigweed, palmer (palmer pigweed, Amaranthus palmeri), waterhemp (common waterhemp, Amaranthus rudis), surinam grass (Brachiaria decumbens), crabgrass, large (large crabgrass, Digitaria sanguinalis), crabgrass, Brazil (Brazilian crabgrass, Digitaria horizontalis), panicum, fall (fall panicum, Panicum dichotomiflorum), foxtail, giant (giant foxtail, Setaria faberii), foxtail, green (green foxtail, Setaria viridis), goosegrass (Eleusine indica), johnsongrass (Sorghum halepense), ragweed (common ragweed, Ambrosia elatior), barnyardgrass (Echinochloa crus-galli), sandbur (southern sandbur, Cenchrus echinatus), arrowleaf […] rhombifolia), ryegrass, Italian (Italian ryegrass, Lolium multiflorum), dayflower, VA (Virginia dayflower, Commelina virginica), field bindweed (Convolvulus arvensis), morningglory (Ipomoea coccinea), nightshade (eastern black nightshade, Solanum ptycanthum), kochia (Kochia scoparia), nutsedge, yellow (yellow nutsedge, Cyperus esculentus), cocklebur (common cocklebur, Xanthium strumarium), smartweed (ladysthumb smartweed, Polygonum Persicaria) and beggarticks (hairy beggarticks, Bidens pilosa), were planted into a silt loam soil and treated preemergence with test chemicals formulated in a non-phytotoxic solvent mixture which included a surfactant. Treated plants and controls were maintained in a greenhouse for 21 days, after which time all species were compared to controls and visually evaluated. Plant response ratings, summarized in Table E, are based on a scale of 0 to 100 where 0 is no effect and 100 is complete control. A dash (-) response means no test result.

[9] = system: field bindweed; assay: Test E preemergence herbicide test; format: in vivo, Convolvulus arvensis; design: key: 0 = no effect, 100 = complete control
How it was run: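 Seeds were sown in silt loam soil and treated preemergence with test chemicals in a non-phytotoxic solvent mixture containing a surfactant. Plants were kept in a greenhouse for 21 days, then visually rated against untreated controls on a 0–100 scale (0 = no effect, 100 = complete control).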

## O=C1NCC(c2ccc(C(F)(F)F)cc2)C1C(=O)Nc1cccc(F)c1F (stereo not drawn) [Compound 80, N-(2,3-difluorophenyl)-2-oxo-4-[4-(trifluoromethyl)phenyl]-3-pyrrolidinecarboxamide]
[1]; Postemergence, 31 g ai/ha
  Plant response rating: 5
[1]; Postemergence, 62 g ai/ha
  Plant response rating: 10
[1]; Postemergence, 125 g ai/ha
  Plant response rating: 15
[1]; Postemergence, 250 g ai/ha
  Plant response rating: 10
[1]; Preemergence, 62 g ai/ha
  Plant response rating, Bluegrass: 10
[1]; Preemergence, 31 g ai/ha
  Plant response rating, Bluegrass: 0
[1]; Preemergence, 125 g ai/ha
  Plant response rating: 20
[1]; Preemergence, 250 g ai/ha
  Plant response rating: 45
[2]; Postemergence, 31 g ai/ha
  Plant response rating: 5
[2]; Postemergence, 62 g ai/ha
  Plant response rating: 5
[2]; Postemergence, 125 g ai/ha
  Plant response rating: 5
[2]; Postemergence, 250 g ai/ha
  Plant response rating: 5
[2]; Preemergence, 62 g ai/ha
  Plant response rating, Blackgrass: 10
[2]; Preemergence, 31 g ai/ha
  Plant response rating, Blackgrass: 5
[2]; Preemergence, 125 g ai/ha
  Plant response rating: 20
[2]; Preemergence, 250 g ai/ha
  Plant response rating: 25
[3]; 31 g ai/ha
  Plant response rating: 40
  Plant response rating, Pigweed: 5
[3]; 62 g ai/ha
  Plant response rating: 70
  Plant response rating, Pigweed: 10
[3]; 125 g ai/ha
  Plant response rating: 70
  Plant response rating, Pigweed: 20
[3]; 250 g ai/ha
  Plant response rating: 75
  Plant response rating, Pigweed: 45
[4]; Postemergence, 31 g ai/ha
  Plant response rating: 0
[4]; Postemergence, 62 g ai/ha
  Plant response rating: 0
[4]; Postemergence, 125 g ai/ha
  Plant response rating: 0
[4]; Postemergence, 250 g ai/ha
  Plant response rating: 0
[4]; Preemergence, 62 g ai/ha
  Plant response rating, Barley, Spring: 10
[4]; Preemergence, 31 g ai/ha
  Plant response rating, Barley, Spring: 0
[4]; Preemergence, 125 g ai/ha
  Plant response rating: 15
[4]; Preemergence, 250 g ai/ha
  Plant response rating: 30
[5]; Postemergence, 31 g ai/ha
  Plant response rating: 0
[5]; Postemergence, 62 g ai/ha
  Plant response rating: 0
[5]; Postemergence, 125 g ai/ha
  Plant response rating: 0
[5]; Postemergence, 250 g ai/ha
  Plant response rating: 0
[5]; Preemergence, 62 g ai/ha
  Plant response rating, Barley, Winter: 5
[5]; Preemergence, 31 g ai/ha
  Plant response rating, Barley, Winter: 0
[5]; Preemergence, 125 g ai/ha
  Plant response rating: 15
[5]; Preemergence, 250 g ai/ha
  Plant response rating: 25
[6]; 31 g ai/ha
  Plant response rating: 0
  Plant response rating, Wheat, Spring: 0
[6]; 62 g ai/ha
  Plant response rating: 0
  Plant response rating, Wheat, Spring: 10
[6]; 125 g ai/ha
  Plant response rating: 0
  Plant response rating, Wheat, Spring: 10
[6]; 250 g ai/ha
  Plant response rating: 0
  Plant response rating, Wheat, Spring: 20
[7]; 31 g ai/ha
  Plant response rating: 0
  Plant response rating, Wheat, Winter: 5
[7]; 62 g ai/ha
  Plant response rating: 0
  Plant response rating, Wheat, Winter: 5
[7]; 125 g ai/ha
  Plant response rating: 10
  Plant response rating, Wheat, Winter: 10
[7]; 250 g ai/ha
  Plant response rating: 5
  Plant response rating, Wheat, Winter: 10
[8]; 16 g ai/ha
  Plant response rating, Foxtail, Green: 50
[8]; 31 g ai/ha
  Plant response rating, Foxtail, Green: 60
[8]; 62 g ai/ha
  Plant response rating, Foxtail, Green: 70
[8]; 125 g ai/ha
  Plant response rating, Foxtail, Green: 80
[8]; 250 g ai/ha
  Plant response rating, Foxtail, Green: 90
[9]; 16 g ai/ha
  Plant response rating, Field Bindweed: 0
[9]; 31 g ai/ha
  Plant response rating, Field Bindweed: 0
[9]; 62 g ai/ha
  Plant response rating, Field Bindweed: 0
[9]; 125 g ai/ha
  Plant response rating, Field Bindweed: 0
[9]; 250 g ai/ha
  Plant response rating, Field Bindweed: 0
